Test results taken from PMC6100082, “Pyridine-Ureas as Potential Anticancer Agents: Synthesis and In Vitro Biological Evaluation” (Molecules : A Journal of Synthetic Chemistry and Natural …, 2018).
Read-outs that look alike come from different tables or passages of the source.

How the values were obtained:
Type in all cases: cell-based, human
[1] = tested on: breast cancer MCF-7 cell line; assay: In vitro anti-proliferative activity, MTT assay; conditions: Homo sapiens, MCF-7, MTT
How it was run: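 Cells were grown in DMEM with 10% heat-inactivated FBS, 10 μg/mL insulin and 1% penicillin-streptomycin. Anti-proliferative activity was measured by MTT colorimetric read-out, in triplicate. Values are the mean of at least three separate experiments.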

[2] = tested on: LOX IMVI; assay: NCI one-dose SRB assay (Melanoma)
Protocol: (§1) The structures of all the newly prepared pyridine-ureas 8a–n were submitted to the National Cancer Institute (NCI) Developmental Therapeutic Program. Eight compounds 8b, 8d, 8e, 8i, 8j and 8l–n were selected to be examined for their in vitro growth inhibitory activity. The anticancer assays were carried out according to the protocol of the Drug Evaluation Branch, NCI, Bethesda. The selected pyridine-ureas were tested at one dose primary anticancer assay against a panel of approximately 58 cancer lines (concentration 10^−5 M). The tested human cancer cell lines emerged from nine different cancer subtypes: leukemia, colon, melanoma, ovarian, lung, CNS, renal, breast and prostate cancers. The sulforhodamine B (SRB) protein assay was adopted to estimate the cell viability and growth. The results were reported as mean-graph of the percentage growth of the treated cells, and presented as percentage growth inhibition (GI%) caused by the test compounds (Table 2).
(§2) The anticancer assays were performed in accordance with the protocol of the Drug Evaluation Branch, NCI, Bethesda. A 48 h drug exposure protocol was used and sulforhodamine B (SRB) protein assay was applied to estimate the cell viability and growth, as reported earlier.

[3] = tested on: M14; assay: NCI one-dose SRB assay (Melanoma)
Protocol: as §1, §2

[4] = tested on: MALME-3M; assay: NCI one-dose SRB assay (Melanoma)
Protocol: as §1, §2

[5] = tested on: MDA-MB-435; assay: NCI one-dose SRB assay (Melanoma)
Protocol: as §1, §2

[6] = tested on: SK-MEL-28; assay: NCI one-dose SRB assay (Melanoma)
Protocol: as §1, §2

[7] = tested on: SK-MEL-2; assay: NCI one-dose SRB assay (Melanoma)
Protocol: as §1, §2

[8] = tested on: SK-MEL-5; assay: NCI one-dose SRB assay (Melanoma)
Protocol: as §1, §2

[9] = tested on: UACC-257; assay: NCI one-dose SRB assay (Melanoma)
Protocol: as §1, §2

[10] = tested on: UACC-62; assay: NCI one-dose SRB assay (Melanoma)
Protocol: as §1, §2

[11] = tested on: IGROV1; assay: NCI one-dose SRB assay (Ovarian Cancer)
Protocol: as §1, §2

[12] = tested on: NCI/ADR-RES; assay: NCI one-dose SRB assay (Ovarian Cancer)
Protocol: as §1, §2

[13] = tested on: OVCAR-3; assay: NCI one-dose SRB assay (Ovarian Cancer)
Protocol: as §1, §2

[14] = tested on: OVCAR-4; assay: NCI one-dose SRB assay (Ovarian Cancer)
Protocol: as §1, §2

[15] = tested on: OVCAR-5; assay: NCI one-dose SRB assay (Ovarian Cancer)
Protocol: as §1, §2

[16] = tested on: OVCAR-8; assay: NCI one-dose SRB assay (Ovarian Cancer)
Protocol: as §1, §2

[17] = tested on: SK-OV-3; assay: NCI one-dose SRB assay (Ovarian Cancer)
Protocol: as §1, §2

[18] = tested on: BT-549; assay: NCI one-dose SRB assay (Breast Cancer)
Protocol: as §1, §2

[19] = tested on: HS 578T; assay: NCI one-dose SRB assay (Breast Cancer)
Protocol: as §1, §2

[20] = tested on: MCF7; assay: NCI one-dose SRB assay (Breast Cancer)
Protocol: as §1, §2

[21] = tested on: MDA-MB-231; assay: NCI one-dose SRB assay (Breast Cancer)
Protocol: as §1, §2

[22] = tested on: MDA-MB-468; assay: NCI one-dose SRB assay (Breast Cancer)
Protocol: as §1, §2

[23] = tested on: T-47D; assay: NCI one-dose SRB assay (Breast Cancer)
Protocol: as §1, §2

[24] = Homo sapiens, 10 μM, read-out: Percentage growth inhibition (GI%)

For COc1ccc(-c2ccc(NC(=O)Nc3ccc(Cl)cc3)c(C)n2)cc1 [Compound 8d, 1-(4-Chlorophenyl)-3-(6-(4-methoxyphenyl)-2-methylpyridin-3-yl) Urea], the IC50 ([1]; MCF7, 48 h, 48 h of incubation, read-out: IC50 48 h) was 7.1 ± 0.38 µM, the IC50 ([1]; MCF7, 72 h, 72 h of incubation, read-out: IC50 72 h) was 5.14 ± 0.46 µM and the “Growth Percent” value ([2]; 1.00E-5 Molar) was 85.30%. The inhibition at 10 µM [2, 24] was 15%, the inhibition at 10 µM ([3]; Homo sapiens, M14, 10 μM, read-out: Percentage growth inhibition (GI%)) was 14% and the “Growth Percent” value ([3]; M14, 1.00E-5 Molar) was 86.55%. The “Growth Percent” value ([4]; 1.00E-5 Molar) was 104.47%, the inhibition at 10 µM [4, 24] was less than 10% and the inhibition at 10 µM ([5]; Homo sapiens, MDA-MB-435, 10 μM, read-out: Percentage growth inhibition (GI%)) was 12%. For the same molecule, the “Growth Percent” value ([5]; MDA-MB-435, 1.00E-5 Molar) was 88.00%, the inhibition at 10 µM ([6]; Homo sapiens, SK-MEL-28, 10 μM, read-out: Percentage growth inhibition (GI%)) was 11% and the “Growth Percent” value ([6]; SK-MEL-28, 1.00E-5 Molar) was 89.84%. The inhibition at 10 µM ([7]; Homo sapiens, SK-MEL-2, 10 μM, read-out: Percentage growth inhibition (GI%)) was less than 10%, the “Growth Percent” value ([7]; SK-MEL-2, 1.00E-5 Molar) was 104.03% and the inhibition at 10 µM ([8]; Homo sapiens, SK-MEL-5, 10 μM, read-out: Percentage growth inhibition (GI%)) was 13%. The “Growth Percent” value ([8]; SK-MEL-5, 1.00E-5 Molar) was 87.05%, the inhibition at 10 µM ([9]; Homo sapiens, UACC-257, 10 μM, read-out: Percentage growth inhibition (GI%)) was 22% and the “Growth Percent” value ([9]; UACC-257, 1.00E-5 Molar) was 78.79%. The inhibition at 10 µM ([10]; Homo sapiens, UACC-62, 10 μM, read-out: Percentage growth inhibition (GI%)) was 29%, the “Growth Percent” value ([10]; UACC-62, 1.00E-5 Molar) was 71.19% and the inhibition at 10 µM ([11]; Homo sapiens, IGROV-1, IGROV1, 10 μM, read-out: Percentage growth inhibition (GI%)) was 17%. The “Growth Percent” value ([11]; IGROV1, 1.00E-5 Molar) was 83.85%, the “Growth Percent” value ([12]; 1.00E-5 Molar) was 92.03% and the inhibition at 10 µM [12, 24] was less than 10%. The inhibition at 10 µM ([13]; Homo sapiens, OVCAR-3, 10 μM, read-out: Percentage growth inhibition (GI%)) was less than 10%, the “Growth Percent” value ([13]; OVCAR-3, 1.00E-5 Molar) was 101.66% and the inhibition at 10 µM ([14]; Homo sapiens, OVCAR-4, 10 μM, read-out: Percentage growth inhibition (GI%)) was 26%. For the same molecule, the “Growth Percent” value ([14]; OVCAR-4, 1.00E-5 Molar) was 74.67%, the inhibition at 10 µM ([15]; Homo sapiens, OVCAR-5, 10 μM, read-out: Percentage growth inhibition (GI%)) was less than 10% and the “Growth Percent” value ([15]; OVCAR-5, 1.00E-5 Molar) was 93.01%. The inhibition at 10 µM ([16]; Homo sapiens, OVCAR-8, 10 μM, read-out: Percentage growth inhibition (GI%)) was less than 10%, the “Growth Percent” value ([16]; OVCAR-8, 1.00E-5 Molar) was 93.26% and the inhibition at 10 µM ([17]; Homo sapiens, SK-OV-3, 10 μM, read-out: Percentage growth inhibition (GI%)) was 18%. The “Growth Percent” value ([17]; SK-OV-3, 1.00E-5 Molar) was 82.66%, the “Growth Percent” value ([18]; BT-549, 1.00E-5 Molar) was 96.71% and the inhibition at 10 µM ([18]; Homo sapiens, BT-549, 10 μM, read-out: Percentage growth inhibition (GI%)) was less than 10%. The “Growth Percent” value ([19]; 1.00E-5 Molar) was 98.36%, the inhibition at 10 µM [19, 24] was less than 10% and the inhibition at 10 µM ([20]; Homo sapiens, MCF7, 10 μM, read-out: Percentage growth inhibition (GI%)) was 26%. For the same molecule, the “Growth Percent” value ([20]; MCF7, 1.00E-5 Molar) was 74.74%, the inhibition at 10 µM ([21]; Homo sapiens, MDA-MB-231, 10 μM, read-out: Percentage growth inhibition (GI%)) was less than 10% and the “Growth Percent” value ([21]; MDA-MB-231/ATCC, 1.00E-5 Molar) was 97.34%. For the same molecule, the inhibition at 10 µM ([22]; Homo sapiens, MDA-MB-468, 10 μM, read-out: Percentage growth inhibition (GI%)) was less than 10%, the “Growth Percent” value ([22]; MDA-MB-468, 1.00E-5 Molar) was 91.54% and the “Growth Percent” value ([23]; 1.00E-5 Molar) was 72.90%. For the same molecule, the inhibition at 10 µM ([23]; Homo sapiens, T47D, 10 μM, read-out: Percentage growth inhibition (GI%)) was 28%.
